A word on the vapor or sublimation pressure: it is the equilibrium pressure above the liquid or solid. As usually defined, the mass density is the mass of a sample divided by its volume.

The conditions of this data set: 298.15 K, Liquid; for vapor or sublimation pressure: Closed cell (Static) method; for mass density: Vibrating tube method.

The structures appear in SMILES notation. Numbers after ± are expanded uncertainties.

For `CCC(C)O` (stereo not drawn) [butan-2-ol], the “vapor or sublimation pressure” value is 2.34 ± 0.02 kPa and the mass density came to 802.451 ± 0.31 kg/m3.
Consider `CCCCO` [butan-1-ol], for which the “vapor or sublimation pressure” value is 0.91 ± 0.012 kPa and the mass density was found to be 805.802 ± 0.15 kg/m3.
`CCCCCl` [1-chlorobutane]: the “vapor or sublimation pressure” value was found to be 13.52 ± 0.034 kPa and the mass density was 880.805 ± 0.3 kg/m3.
On the same counts, the results for `CCCCCC` [hexane] are 20.22 ± 0.05 kPa and 654.96 ± 0.33 kg/m3.

For the origin of these results see the NIST ThermoML archive (doi:10.1016/j.jct.2009.04.005).
